A short description of one data set: Half-life in the rat. Details: species or system Ratte. To be noted: in vivo, 20 mg/kg, after administration of 20 mg substance per kg body weight, read-out: Halbwertzeit. From the text:
Verbindungen der Formel I, worin X die Gruppe (b) darstellt, sowie die entsprechenden Ester, Salze und Hydrate zeichnen sich durch eine lange Halbwertzeit aus, d.h. sie bleiben lange im Organismus und können dementsprechend effektiver ihre keimtötende Funktion ausüben. So zeigt z.B. das Dinatriumsalz von (6R,7R)-7-/-2-(2-Amino-4-thiazolyl)-2-[(Z)-me- thoxyimino]acetamido/-3-/[(3-carboxy-1-methyl-1H-1,2,4-triazol-5-yl)thio]methyl/-8-oxo-5-thia-1-azabieyclo[4.2.0]-oct-2-en-2-carbonsäure eine Halbwertzeit an der Ratte von 22 Min. nach Verabreichung von 20 mg Substanz pro kg Körpergewicht.

For the next data set, the system named is Staphylococcus aureus. In words: In vitro activity: minimum inhibitory concentration. To be noted: read-out: Mindesthemmkonzentration. Type of data set: cell-based. From the text: (§1) Zum Nachweis der antimikrobiellen Wirksamkeit der erwähnten Produkte wurden folgende repräsentative Vertreter getestet: • Produkt A: (6R,7R)-7-/2-(2-Amino-4-thiazolyl)-2-[(Z)-methoxyimino]acetamido/-3-/[(2,5-dihydro-6- methoxy-2-methyl-5-oxo-as-triazin-3-yl)-; thio]methyl/-8-oxo-5-thia-1-azabicyclo-[4.2.0]oct-2-en-2-carbonsäure-Natriumsalz • Produkt B: (6R,7R)-7-/2-(2-Amino-4-thiazolyl)-2-[(Z)-methoxyimino]acetamido/-3-/[(3-carboxy-1-methyl-1H-1,2,4-triazol-5-yl)thio]methyl/-8-oxo-5-thia-1-azabicyclo[4.2.0]oct-2-en-2-carbonsäure-Dinatriumsalz • Produkt C: (6R,7R)-7-[2-(2-Amino-4-thiazolyl)-2-((Z)-methoxyimino)acetamido]-3-[[[2,5-dihydro-2-methyl-5-oxo-6-[(pivaloyloxy)methoxy]-as- triazin-3-yl]thio]methyl]-[…]-1-azabicyclo[4.2.0]oct-2-en-2-carbonsäure-Natrium-. salz.
(§2) Aktivität in vitro: Mindesthemmkonzentration (µg/ml)

Data set [1] has as its system Pseudomonas aeruginosa Stamm 1. The data set is described as above. The conditions noted are these: STAMM1; Pseudomonas aeruginosa Stamm 1, β-lactamase-producing strain; read-out: Mindesthemmkonzentration. Type of data set: cell-based.
Text: as §1, §2

The subject of a further data set is Haemophilus influenzae. The description is as above. Format: cell-based. To be noted: read-out: Mindesthemmkonzentration.
Text: as §1, §2

Data set [2] concerns Pseudomonas aeruginosa Stamm 2. Described as above. Type of data set: cell-based. The conditions noted are these: STAMM2; Pseudomonas aeruginosa Stamm 2, β-lactamase-producing strain; read-out: Mindesthemmkonzentration.
Text: as §1, §2

A further data set has as its system Proteus mirabilis. The data set is described as above. Type of data set: cell-based. The conditions noted are these: β-lactamase-producing strain, read-out: Mindesthemmkonzentration.
Text: as §1, §2

The test system of a further data set is Proteus vulgaris. Described as above. Format: cell-based. To be noted: β-lactamase-producing strain, read-out: Mindesthemmkonzentration.
Text: as §1, §2

A further data set relates to Serratia marcescens. The description is as above. To be noted: β-lactamase-producing strain, read-out: Mindesthemmkonzentration. Type of data set: cell-based.
Text: as §1, §2

In the next data set the test system is Neisseria gonorrhoeae. Described as above. The conditions noted are these: read-out: Mindesthemmkonzentration. Type of data set: cell-based.
Text: as §1, §2

The next data set deals with Enterobacter cloacae. Described as above. Format: cell-based. To be noted: β-lactamase-producing strain, read-out: Mindesthemmkonzentration.
Text: as §1, §2

For a further data set, the system named is Escherichia coli. Described as above. To be noted: β-lactamase-producing strain, read-out: Mindesthemmkonzentration. Type of data set: cell-based.
Text: as §1, §2

A short description of a further data set: Toxicity (LD100). Type of data set: in vivo.

Values after ≈ are worked out from the molar mass of the structure shown.

On to `CO/N=C(\C(=O)N[C@@H]1C(=O)N2C(C(=O)O)=C(CSc3nc(C(=O)O)nn3C)CS[C@H]12)c1csc(N)n1` [Produkt B, (6R,7R)-7-/2-(2-Amino-4-thiazolyl)-2-[(Z)-methoxyimino]acetamido/-3-/[(3-carboxy-1-methyl-1H-1,2,4-triazol-5-yl)thio]methyl/-8-oxo-5-thia-1-azabicyclo[4.2.0]oct-2-en-2-carbonsäure-Dinatriumsalz], for which, in “Half-life in the rat”, the half-life came out at 22 min. Moreover, the MIC with Staphylococcus aureus is 10 µg/mL (≈ 18 µM); in [1], 40 µg/mL (≈ 72.1 µM); with Haemophilus influenzae it was 0.01 µg/mL (≈ 0.018 µM); in [2] it was 40 µg/mL (≈ 72.1 µM); in the data set on Proteus mirabilis, 0.01 µg/mL (≈ 0.018 µM); in the data set on Proteus vulgaris, 0.01 µg/mL (≈ 0.018 µM). In addition, the MIC in the data set on Serratia marcescens came out at 0.16 µg/mL (≈ 0.289 µM); in the data set with Neisseria gonorrhoeae, 0.0025 µg/mL (≈ 0.00451 µM); in the data set on Enterobacter cloacae, 10 µg/mL (≈ 18 µM); in the data set with Escherichia coli, 0.08 µg/mL (≈ 0.144 µM). Also, the LD100 in “Toxicity (LD100)” (p.o.) was above 5000 mg/kg.
`CO/N=C(\C(=O)N[C@@H]1C(=O)N2C(C(=O)O)=C(CSc3nc(=O)c(OC)nn3C)CS[C@H]12)c1csc(N)n1` [Produkt A, (6R,7R)-7-/2-(2-Amino-4-thiazolyl)-2-[(Z)-methoxyimino]acetamido/-3-/[(2,5-dihydro-6-methoxy-2-methyl-5-oxo-as-triazin-3-yl)- ; thio]methyl/-8-oxo-5-thia-1-azabicyclo-[4.2.0]oct-2-en-2-carbonsäure-Natriumsalz]: the MIC in the data set with Staphylococcus aureus turned out to be 2.5 µg/mL (≈ 4.4 µM); in data set [1] it was 40 µg/mL (≈ 70.3 µM); in the data set with Haemophilus influenzae it was 0.01 µg/mL (≈ 0.0176 µM); in data set [2] it was 80 µg/mL (≈ 141 µM); with Proteus mirabilis it was 0.04 µg/mL (≈ 0.0703 µM); in the data set on Proteus vulgaris it was 0.02 µg/mL (≈ 0.0352 µM). Also, the MIC in the data set on Serratia marcescens came out at 0.16 µg/mL (≈ 0.281 µM); in the data set with Neisseria gonorrhoeae it was 0.01 µg/mL (≈ 0.0176 µM); in the data set on Enterobacter cloacae, 1.2 µg/mL (≈ 2.11 µM); in the data set with Escherichia coli it was 0.04 µg/mL (≈ 0.0703 µM). Moreover, the results for the LD100 in “Toxicity (LD100)” (i.v.), in “Toxicity (LD100)” (p.o.) and in the data set “Toxicity (LD100)” (s.c.) were above 500 mg/kg, above 5000 mg/kg and above 4000 mg/kg, respectively.
`CO/N=C(\C(=O)N[C@@H]1C(=O)N2C(C(=O)O)=C(CSc3nc(=O)c(OCOC(=O)C(C)(C)C)nn3C)CS[C@H]12)c1csc(N)n1` [Produkt C, (6R,7R)-7-[2-(2-Amino-4-thiazolyl)-2-((Z)-methoxyimino)acetamido]-3-[[[2,5-dihydro-2-methyl-5-oxo-6-[(pivaloyloxy)methoxy]-as-triazin-3-yl]thio]methyl]-[…]-1-azabicyclo[4.2.0]oct-2-en-2-carbonsäure-Natrium-. salz]: the MIC with Staphylococcus aureus is 1.6 µg/mL (≈ 2.39 µM); in [1] it was 50 µg/mL (≈ 74.8 µM); in the data set on Haemophilus influenzae, 0.04 µg/mL (≈ 0.0598 µM); in data set [2] it was 50 µg/mL (≈ 74.8 µM); in the data set with Proteus mirabilis, 0.4 µg/mL (≈ 0.598 µM); in the data set on Proteus vulgaris it was 0.2 µg/mL (≈ 0.299 µM). The MIC in the data set with Serratia marcescens came to 3.1 µg/mL (≈ 4.64 µM); in the data set with Enterobacter cloacae it was 25 µg/mL (≈ 37.4 µM); in the data set with Escherichia coli, 0.1 µg/mL (≈ 0.15 µM). The results for the LD100 in “Toxicity (LD100)” (i.v.), in the data set “Toxicity (LD100)” (p.o.) and in “Toxicity (LD100)” (s.c.) were above 500 mg/kg, above 5000 mg/kg and above 4000 mg/kg, respectively.
